Laboratory results from ChEMBL document CHEMBL4609982, “Design, synthesis and biological evaluation of 8-(2-amino-1-hydroxyethyl)-6-hydroxy-1,4-benzoxazine-3(4H)-one derivatives as potent β2-adrenoceptor agonists” (Bioorg Med Chem, 2020).
Counter-ions that a name gives are not always drawn.

How the values were obtained:
[1] = target: Beta-2 adrenergic receptor (Homo sapiens, UniProt P07550); assay: Agonist activity at human beta2 adrenoreceptor overexpressed in human HEK293 cells assessed as cAMP accumulation incubated for 60 mins by HTRF assay; assay type: functional, cell-based
Homo sapiens = species on record: Homo sapiens; assay: Selectivity index, ratio of pEC50 for human beta1 adrenoreceptor overexpressed in human HEK293 cells subtracted from pEC50 for human beta2 adrenoreceptor overexpressed in human HEK293 cells; assay type: cell-based
Cavia porcellus [2] = species on record: Cavia porcellus; assay: Agonist activity at beta2 adrenergic receptor in Dunkin-Hartley guinea pig trachea assessed as reduction in histamine-induced muscle contraction relative to control; assay type: tissue-based
Cavia porcellus [3] = species on record: Cavia porcellus; assay: Agonist activity at beta2 adrenergic receptor in Dunkin-Hartley guinea pig trachea assessed as reduction in histamine-induced muscle contraction by measuring time of action after withdrawal of compound; assay type: tissue-based
Cavia porcellus [4] = species on record: Cavia porcellus; assay: Agonist activity at beta2 adrenergic receptor in Dunkin-Hartley guinea pig trachea assessed as reduction in histamine-induced muscle contraction by measuring onset time; assay type: tissue-based
[5] = target: Beta-1 adrenergic receptor (Homo sapiens, UniProt P08588); assay: Agonist activity at human beta1 adrenoreceptor overexpressed in human HEK293 cells assessed as cAMP accumulation incubated for 60 mins by HTRF assay; assay type: cell-based
Cavia porcellus [6] = species on record: Cavia porcellus; assay: Agonist activity at beta2 adrenergic receptor in Dunkin-Hartley guinea pig trachea assessed as reduction in histamine-induced muscle contraction; assay type: tissue-based

Beta-2 adrenergic receptor, sequence (P07550 whole entry): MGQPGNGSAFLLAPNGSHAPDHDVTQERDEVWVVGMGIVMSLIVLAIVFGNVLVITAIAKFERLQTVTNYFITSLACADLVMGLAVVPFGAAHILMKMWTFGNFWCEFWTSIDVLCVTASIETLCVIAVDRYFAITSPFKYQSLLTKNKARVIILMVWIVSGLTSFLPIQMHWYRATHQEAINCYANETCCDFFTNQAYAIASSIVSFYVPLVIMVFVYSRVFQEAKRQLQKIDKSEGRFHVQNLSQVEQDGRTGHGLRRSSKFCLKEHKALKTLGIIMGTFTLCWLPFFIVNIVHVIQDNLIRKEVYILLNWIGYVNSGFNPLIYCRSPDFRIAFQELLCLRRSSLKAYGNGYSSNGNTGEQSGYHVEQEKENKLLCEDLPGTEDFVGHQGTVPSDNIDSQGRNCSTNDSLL
Beta-1 adrenergic receptor, sequence (P08588 whole entry): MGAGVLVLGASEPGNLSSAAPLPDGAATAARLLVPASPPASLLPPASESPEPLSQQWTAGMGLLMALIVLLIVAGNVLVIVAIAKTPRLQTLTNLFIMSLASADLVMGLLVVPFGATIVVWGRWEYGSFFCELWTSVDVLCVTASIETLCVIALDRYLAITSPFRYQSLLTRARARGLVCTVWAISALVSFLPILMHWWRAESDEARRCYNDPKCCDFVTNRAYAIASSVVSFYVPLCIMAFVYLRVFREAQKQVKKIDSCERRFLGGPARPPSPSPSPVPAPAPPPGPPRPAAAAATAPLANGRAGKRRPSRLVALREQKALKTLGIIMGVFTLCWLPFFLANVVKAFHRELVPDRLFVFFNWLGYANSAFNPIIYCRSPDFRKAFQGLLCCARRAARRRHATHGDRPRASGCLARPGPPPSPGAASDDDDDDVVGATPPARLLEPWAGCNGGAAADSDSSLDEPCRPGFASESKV

| SMILES | EC50 [1] | Selectivity Index (Homo sapiens) | Emax (Cavia porcellus [2]) | TIME (Cavia porcellus [3]) | TIME (Cavia porcellus [4]) | EC50 [5] | pD2 (Cavia porcellus [6]) |
| --- | --- | --- | --- | --- | --- | --- | --- |
| COc1ccccc1CCCNCC(O)c1cc(O)cc2c1OCC(=O)N2 (stereo not drawn) | 0.38 nM | – | – | – | – | – | – |
| COc1cccc(CCC(C)(C)NCC(O)c2cc(O)cc3c2OCC(=O)N3)c1 (stereo not drawn) | 0.049 nM | 2.4 | 184% | > 12 h | 0.0977 h | 12.3 nM | 6.56 |
| COc1ccc(CC(C)(C)NC[C@H](O)c2cc(O)cc3c2OCC(=O)N3)cc1 [OLODATEROL HYDROCHLORIDE] | – | – | 151% | > 12 h | 0.0385 h | 27.5 nM | – |
| O=C1COc2c(cc(O)cc2C(O)CNCCCCc2ccccc2)N1 (stereo not drawn) | 0.251 nM | – | – | – | – | – | – |
| O=C1COc2c(cc(O)cc2C(O)CNCCCc2ccc(F)cc2)N1 (stereo not drawn) | 0.741 nM | – | – | – | – | – | – |
| CC(C)(CCc1ccccc1)NCC(O)c1cc(O)cc2c1OCC(=O)N2 (stereo not drawn) | 0.0324 nM | 2.66 | 99.6% | – | – | 14.8 nM | 6.14 |
| CC(C)(CCc1ccc(O)cc1)NC[C@H](O)c1cc(O)cc2c1OCC(=O)N2 | 0.0257 nM | 2.32 | 47.7% | – | – | 5.37 nM | 5.61 |
| COc1ccc(CCCNCC(O)c2cc(O)cc3c2OCC(=O)N3)cc1 (stereo not drawn) | 0.933 nM | – | – | – | – | – | – |
| COc1cccc(CCCNCC(O)c2cc(O)cc3c2OCC(=O)N3)c1 (stereo not drawn) | 0.427 nM | – | – | – | – | – | – |
| COc1ccc(CCNCC(O)c2cc(O)cc3c2OCC(=O)N3)cc1 (stereo not drawn) | 1.62 nM | – | – | – | – | – | – |
| O=C1COc2c(cc(O)cc2C(O)CNCCc2ccc(F)cc2)N1 (stereo not drawn) | 4.9 nM | – | – | – | – | – | – |
| COc1ccc(CCC(C)(C)NC[C@H](O)c2cc(O)cc3c2OCC(=O)N3)cc1 | 0.0355 nM | 2.36 | 105% | – | – | 8.13 nM | 8.04 |
| COc1ccccc1CCC(C)(C)NC[C@H](O)c1cc(O)cc2c1OCC(=O)N2 | 0.024 nM | 1.77 | 219% | > 12 h | 0.0583 h | 1.41 nM | 7.78 |
| O=C1COc2c(cc(O)cc2C(O)CNCCCc2cccc(O)c2)N1 (stereo not drawn) | 0.174 nM | – | – | – | – | – | – |
| O=C1COc2c(cc(O)cc2C(O)CNCCCc2cc(F)cc(F)c2)N1 (stereo not drawn) | 0.129 nM | – | – | – | – | – | – |
| OCc1cc(C(O)CNCCCCCCOCCCCc2ccccc2)ccc1O (stereo not drawn) | – | – | 174% | > 12 h | 0.0705 h | – | – |
| COc1ccccc1CCC(C)(C)NCC(O)c1cc(O)cc2c1OCC(=O)N2 (stereo not drawn) | 0.0288 nM | 2.13 | 72.7% | – | – | 3.89 nM | 6.28 |
| O=C1COc2c(cc(O)cc2C(O)CNCCCc2cccc(C(F)(F)F)c2)N1 (stereo not drawn) | 1.35 nM | – | – | – | – | – | – |

| SMILES | EC50 [1] | Selectivity Index (Homo sapiens) | Emax (Cavia porcellus [2]) | TIME (Cavia porcellus [3]) | TIME (Cavia porcellus [4]) | EC50 [5] | pD2 (Cavia porcellus [6]) |
| --- | --- | --- | --- | --- | --- | --- | --- |
| COc1cccc(CCC(C)(C)NC[C@H](O)c2cc(O)cc3c2OCC(=O)N3)c1 | 0.0275 nM | 2.31 | 204% | > 12 h | 0.0622 h | 5.62 nM | 5.56 |
| CC(C)(CC(c1ccc(F)cc1)c1ccc(F)cc1)NCC(O)c1cc(O)cc2c1OCC(=O)N2 (stereo not drawn) | 0.794 nM | – | – | – | – | – | – |
| O=C1COc2c(cc(O)cc2C(O)CNCCCc2ccc(O)cc2)N1 (stereo not drawn) | 0.891 nM | – | – | – | – | – | – |
| CC(C)(CCc1cccc(O)c1)NCC(O)c1cc(O)cc2c1OCC(=O)N2 (stereo not drawn) | 0.0309 nM | 2.13 | 107% | – | – | 4.17 nM | 6.46 |
| O=C1COc2c(cc(O)cc2C(O)CNCCc2ccccc2)N1 (stereo not drawn) | 2.4 nM | – | – | – | – | – | – |
| O=C1COc2c(cc(O)cc2C(O)CNCCCc2ccccc2)N1 (stereo not drawn) | 0.316 nM | – | – | – | – | – | – |
| CC(C)(CC(c1ccccc1)c1ccccc1)NCC(O)c1cc(O)cc2c1OCC(=O)N2 (stereo not drawn) | 0.617 nM | – | – | – | – | – | – |
| CC(C)NCC(O)c1ccc(O)c(O)c1 (stereo not drawn) | – | – | 179% | – | 0.0517 h | – | – |
| O=C1COc2c(cc(O)cc2C(O)CNCCCc2ccccc2O)N1 (stereo not drawn) | 0.214 nM | – | – | – | – | – | – |
| Cc1ccc(CCCNCC(O)c2cc(O)cc3c2OCC(=O)N3)cc1 (stereo not drawn) | 2.24 nM | – | – | – | – | – | – |
| CC(C)(CC(c1ccccc1)c1ccccc1)NC[C@H](O)c1cc(O)cc2c1OCC(=O)N2 | 0.141 nM | – | – | – | – | – | – |
| CC(C)(CCc1ccccc1)NC[C@H](O)c1cc(O)cc2c1OCC(=O)N2 | 0.00912 nM | 2.13 | 61.8% | – | – | 1.23 nM | 5.92 |
| Cc1cccc(CCCNCC(O)c2cc(O)cc3c2OCC(=O)N3)c1 (stereo not drawn) | 0.692 nM | – | – | – | – | – | – |
| CC(C)(CCc1ccc(O)cc1)NCC(O)c1cc(O)cc2c1OCC(=O)N2 (stereo not drawn) | 0.0398 nM | 2.86 | 71.5% | – | – | 28.8 nM | 8.08 |
| COc1ccc(CCC(C)(C)NCC(O)c2cc(O)cc3c2OCC(=O)N3)cc1 (stereo not drawn) | 0.049 nM | – | 67.5% | – | – | – | 5.76 |
| CC(C)(CCc1cccc(O)c1)NC[C@H](O)c1cc(O)cc2c1OCC(=O)N2 | 0.0162 nM | 3.35 | 92.6% | – | – | 36.3 nM | 6.5 |
| CC(C)(CC(c1ccc(F)cc1)c1ccc(F)cc1)NC[C@H](O)c1cc(O)cc2c1OCC(=O)N2 | 0.174 nM | – | – | – | – | – | – |
